Bounds are passed on as bounds.

These results are taken from patent US20240018105A1, “TROPOLONE DERIVATIVES AND TAUTOMERS THEREOF FOR IRON REGULATION IN ANIMALS” (Kinesid Therapeutics, Inc., priority 2019, published 2024).

The nature of one test: Ligand facilitated Fe(III) efflux from liposomes. The following applies: 10 uM ligand concentration; Table 1. As to the method:
Assay 1: Ligand Facilitated Fe(III) Efflux from Liposomes Preparation of POPC (1-palmitoyl-2-oleoyl-sn-glycero-3-phosphocholine): Cholesterol Liposomes:
A 1M buffer solution of MES and Tris was prepared by dissolving 121.14 grams of Tris base and 213.25 grams of MES hydrate in 500 mL of MilliQ water and adjusted to pH7.0 using an […] HCl solution before bringing the total volume of the solution to 1 L. A 500 mM solution of FeCl3 was prepared by dissolving 0.811 grams of anhydrous FeCl3 in 10 mL of a 0.1M H2SO4 aqueous solution. Inside buffer is prepared in a 50 mL falcon tube, which was added with 25 mL of MilliQ water, 1.61 g of sodium citrate, 1.5 mL of the above FeCl3 solution, and 2.5 mL of the 1M MES/Tris HCl buffer (pH=7.0), and finally additional MilliQ H2O to bring to a 50 mL final volume.
Lipid solution is prepared by dissolving 206.9 mg of POPC (1-palmitoyl-2-oleoyl-sn-glycero-3-phosphocholine) and 8.6 mg of cholesterol in 10 mL of ethanol.
The lipids solution and the inside buffer solution are independently loaded into 10 mL luer lock syringes for loading into a virgin cartridge on a Precision Nanosystems NanoAssembler to prepare unilamaller liposomes with the following parameters: 7.5 mL total volume, 1.5:1 mixing ratio of inside buffer:lipids solution, 8 mL/min flow rate, ambient temperature, 0.35 mL start waste, and 0.05 mL of end waste. 7.5 mL of liposomes is harvested for purification on a 6-inch long, 1-inch diameter Sephadex G-50 column wetted in 600 mM sodium ascorbate and 50 mM MES/Tris HCl pH 7.0 buffer. This buffer also serves as the column running buffer. The crude liposome solution is carefully loaded with minimal volume of running buffer above the top of the Sphadex, allowed to enter the matrix, and the column is run with the continued addition of running buffer. The eluting liposomes, observed as a milky and turbid solution, are collected until free iron begins to elute (observed as a deep purple color) and the fractions are pooled for phosphorus quantitation.
Phosphorus content of eluted liposomes was determined by the process outlined below. 10 uL of liposome elution and a running buffer blank are added to a 5 mL glass vial containing 450 uL of a 8.9 M aqueous H2SO4 solution, the mixture is heated to 225° C. for 25 minutes in an aluminum heat block to hydrolyze POPC and cooled for 5 minutes. 200 ul of a 30% hydrogen peroxide aqueous solution is added to each vial and heated to 225° C. for 25 minutes. After cooling, the phosphorus content was determined using an Abcam Phosphate Assay kit, with buffer subtracted phosphorus levels determined against a standard curve of phosphate included in the kit. Liposomes were diluted to 1 mM phosphate in Running Buffer for use in assays after accounting for dilutions made during phospholipid digestion.
Determination of the rate at which a small molecule ligand liberates (transport) Ferric iron from liposomes is performed in clear bottom black 384-well plates on a Spectramax i3x set to read the absorbance at 562 nm in the kinetic mode every 60 seconds for 120 minutes. 1 uL of serially diluted DMSO stock solution of a small molecule ligand is added to wells in triplicate to give the final concentrations of 40, 20, 10, 5, 2.5, and 1.25 uM of the ligand at 80 μL final volume, followed by addition of 1 μL of 100 mM Ferrozine in water to give a final concentration of 1 mM ferrozine. 78 uL of liposomes diluted to 1 mM phosphorus in running buffer is added to wells as quickly as possible (using a digital repeater mulchannel pipette) with the kinetic read initiated as rapidly as possible after addition of liposomes to all wells. Typically, eight compounds at six concentrations are tested in triplicate simultaneously.
Upon completion of kinetic read, the data for individual reads is fitted to a single phase association regression with the equation Y=(Y0−YMax)^(−kX)+YMax, with Y being the 562 absorbance value and X being time in minutes. […]
As to `O=c1cccc(-c2ccncc2)cc1O` [Ex.7, 2-hydroxy-4-(pyridin-4-yl)cyclohepta-2,4,6-trien-1-one], the “Liposome Fe transport kefflux at 10 10 μM” value is 0.1-5. Take `Nc1ccc(-c2cccc(=O)c(O)c2)cn1` [Ex.13, 4-(6-aminopyridin-3-yl)-2-hydroxycyclohepta-2,4,6-trien-1-one]: the “Liposome Fe transport kefflux at 10 10 μM” value is reported as 0.1-5. For `Cc1ccncc1-c1cccc(=O)c(O)c1` [Ex.14, 2-hydroxy-4-(4-methylpyridin-3-yl)cyclohepta-2,4,6-trien-1-one], the “Liposome Fe transport kefflux at 10 10 μM” value is on record as 0.1-5.

In the case of `Cc1nc(C)c(-c2cccc(=O)c(O)c2)cc1F.O=C(O)C(F)(F)F` [Ex.20, 4-(5-fluoro-2,6-dimethylpyridin-3-yl)-2-hydroxycyclohepta-2,4,6-trien-1-one], the “Liposome Fe transport kefflux at 10 10 μM” value is 0.1-5. `Cc1nc(C)c(-c2ccc(O)c(=O)cc2)cc1F.O=C(O)C(F)(F)F` [Ex.21, 5-(5-fluoro-2,6-dimethylpyridin-3-yl)-2-hydroxycyclohepta-2,4,6-trien-1-one]: the “Liposome Fe transport kefflux at 10 10 μM” value is listed as 0.1-5. Take `O=c1ccc(-c2ccc(F)cn2)ccc1O` [Ex.22, 5-(5-fluoropyridin-2-yl)-2-hydroxycyclohepta-2,4,6-trien-1-one]: the “Liposome Fe transport kefflux at 10 10 μM” value is recorded as 0.1-5. The same measure, in the same setting: as for `Cc1cc(-c2ccc(F)cn2)ccc(O)c1=O.O=C(O)C(F)(F)F` [Ex.25, 4-(5-fluoropyridin-2-yl)-7-hydroxy-2-methylcyclohepta-2,4,6-trien-1-one], the figure is 5-7.5; as for `Cc1cccc(-c2cncc(F)c2)c(=O)c1O.O=C(O)C(F)(F)F` [Ex.27, 7-(5-fluoropyridin-3-yl)-2-hydroxy-3-methylcyclohepta-2,4,6-trien-1-one], 10-25; as for `CSc1nccc(-c2ccccc(O)c2=O)n1` [Ex.40, 2-hydroxy-7-(2-(methylthio)pyrimidin-4-yl)cyclohepta-2,4,6-trien-1-one], 5-7.5. Turning to `Nc1ncc(-c2cccc(=O)c(O)c2)cn1.O=C(O)C(F)(F)F` [Ex.41, 4-(2-aminopyrimidin-5-yl)-2-hydroxycyclohepta-2,4,6-trien-1-one], the “Liposome Fe transport kefflux at 10 10 μM” value was 0.1-5.

Consider `O=c1cccc(-c2ncccn2)cc1O` [Ex.43, 2-hydroxy-4-(pyrimidin-2-yl)cyclohepta-2,4,6-trien-1-one], for which the “Liposome Fe transport kefflux at 10 10 μM” value is 5-7.5.

With `O=c1ccc(-c2ncccn2)ccc1O` [Ex.44, 2-hydroxy-5-(pyrimidin-2-yl)cyclohepta-2,4,6-trien-1-one], the “Liposome Fe transport kefflux at 10 10 μM” value is given as 0.1-5. With `Cc1cncc(-c2cccc(=O)c(O)c2)c1` [Ex.55, 2-hydroxy-4-(5-methylpyridin-3-yl)cyclohepta-2,4,6-trien-1-one], the “Liposome Fe transport kefflux at 10 10 μM” value is recorded as 0.1-5. On to `Cc1ncc(F)cc1-c1ccc(O)c(=O)cc1` [Ex.60, 5-(5-fluoro-2-methylpyridin-3-yl)-2-hydroxycyclohepta-2,4,6-trien-1-one], for which the “Liposome Fe transport kefflux at 10 10 μM” value is 0.1-5.

Staying with this test, now noted: 10 uM ligand concentration; Table 2.
As to `CC(C)c1cccc(-c2cncc(F)c2)c(=O)c1O` [Ex.62, 7-(5-fluoropyridin-3-yl)-2-hydroxy-3-isopropylcyclohepta-2,4,6-trien-1-one], the “Liposome Fe transport Kefflux at 10 μM” value is below 0.1.

Turning to `Cc1c(F)cncc1-c1ccc(O)c(=O)c(C)c1` [Ex.63, 4-(5-fluoro-4-methylpyridin-3-yl)-7-hydroxy-2-methylcyclohepta-2,4,6-trien-1-one], the “Liposome Fe transport Kefflux at 10 μM” value is on record as 10-25. Regarding `Cc1c(F)cncc1-c1ccc(O)c(=O)c(C(C)C)c1` [Ex.64, 4-(5-fluoro-4-methylpyridin-3-yl)-7-hydroxy-2-isopropylcyclohepta-2,4,6-trien-1-one], the “Liposome Fe transport Kefflux at 10 μM” value is below 0.1. For `O=c1ccc(Oc2ccc(F)cc2)ccc1O` [Ex.65, 5-(4-fluorophenoxy)-2-hydroxycyclohepta-2,4,6-trien-1-one], the “Liposome Fe transport Kefflux at 10 μM” value was 5-7.5.

On to `O=c1ccccc(-c2c(F)cccc2F)c1O` [Ex.68, 3-(2,6-difluorophenyl)-2-hydroxycyclohepta-2,4,6-trien-1-one], for which the “Liposome Fe transport Kefflux at 10 μM” value is reported as 7.5-10.

For `O=c1ccccc(-c2ncccc2F)c1O` [Ex.71, 3-(3-fluoropyridin-2-yl)-2-hydroxycyclohepta-2,4,6-trien-1-one], the “Liposome Fe transport Kefflux at 10 μM” value is 0.1-5. For the molecule `O=c1ccccc(-c2ccc(F)cn2)c1S` [Ex.72, 3-(5-fluoropyridin-2-yl)-2-mercaptocyclohepta-2,4,6-trien-1-one], the “Liposome Fe transport Kefflux at 10 μM” value is reported as 7.5-10. Consider `O=C1C=CC(CCc2nc(-c3ccccc(=O)c3O)ccc2F)S1` (stereo not drawn) [Ex.74, 5-(2-(3-fluoro-6-(2-hydroxy-3-oxocyclohepta-1,4,6-trien-1-yl)pyridin-2-yl)ethyl)thiophen-2(5H)-one], for which the “Liposome Fe transport Kefflux at 10 μM” value is listed as 0.1-5. Turning to `Cc1cccc(Oc2ccc(F)cc2F)c(O)c1=O` [Ex.77, 3-(2,4-difluorophenoxy)-2-hydroxy-7-methylcyclohepta-2,4,6-trien-1-one], the “Liposome Fe transport Kefflux at 10 μM” value is 0.1-5.

As to `Cc1cccc(Oc2ccccc2)c(O)c1=O` [Ex.78, 2-hydroxy-7-methyl-3-phenoxycyclohepta-2,4,6-trien-1-one], the “Liposome Fe transport Kefflux at 10 μM” value was 0.1-5.

For the molecule `O=c1ccccc(-c2cocn2)c1O` [Ex.79, 2-hydroxy-3-(oxazol-4-yl)cyclohepta-2,4,6-trien-1-one], the “Liposome Fe transport Kefflux at 10 μM” value is reported as 5-7.5. Still for that read-out and setting: as for `O=c1ccccc(-c2nccs2)c1O` [Ex.80, 2-hydroxy-3-(thiazol-2-yl)cyclohepta-2,4,6-trien-1-one], the figure is 5-7.5. Turning to `O=c1c(F)cccc(-c2cscn2)c1O` [Ex.81, 7-fluoro-2-hydroxy-3-(thiazol-4-yl)cyclohepta-2,4,6-trien-1-one], the “Liposome Fe transport Kefflux at 10 μM” value is recorded as 7.5-10. On the same count and under the same terms, then `O=c1c(Cl)cccc(-c2cscn2)c1O` [Ex.82, 7-chloro-2-hydroxy-3-(thiazol-4-yl)cyclohepta-2,4,6-trien-1-one], with 0.1-5. Consider `O=c1ccc(F)cc(-c2cscn2)c1O` [Ex.83, 5-fluoro-2-hydroxy-3-(thiazol-4-yl)cyclohepta-2,4,6-trien-1-one], for which the “Liposome Fe transport Kefflux at 10 μM” value was 0.1-5.

Take `COC(=O)Cc1ccc(Oc2ccccc(=O)c2O)c(F)c1` [Ex.84, methyl 2-(3-fluoro-4-((2-hydroxy-3-oxocyclohepta-1,4,6-trien-1-yl)oxy)phenyl)acetate]: the “Liposome Fe transport Kefflux at 10 μM” value is 5-7.5. For the molecule `O=c1ccccc(-c2ccns2)c1O` [Ex.85, 2-hydroxy-3-(isothiazol-5-yl)cyclohepta-2,4,6-trien-1-one], the “Liposome Fe transport Kefflux at 10 μM” value is 0.1-5.

For `COC(=O)c1ccc(Oc2ccccc(=O)c2O)c(F)c1` [Ex.86, methyl 3-fluoro-4-((2-hydroxy-3-oxocyclohepta-1,4,6-trien-1-yl)oxy)benzoate], the “Liposome Fe transport Kefflux at 10 μM” value is on record as 0.1-5.

Consider `O=c1ccc(C(CO)Cc2ccccc2)cc(-c2cscn2)c1O` (stereo not drawn) [Ex.87, 2-hydroxy-5-(1-hydroxy-3-phenylpropan-2-yl)-3-(thiazol-4-yl)cyclohepta-2,4,6-trien-1-one], for which the “Liposome Fe transport Kefflux at 10 μM” value is 0.1-5.
